Laboratory results taken from US20230398130A1, “METHODS AND COMPOSITIONS FOR DIFFERENTIATING STEM CELLS” (Massachusetts Institute of Technology, priority 2020, published 2023).

Assays:
[1] = tested on: ISC-enriched organoids; assay: Primary screen, 384-well 2.5-D organoid differentiation (ENR+CD, 6 days): carbachol-induced lysozyme secretion (LYZ.S); type: cell-based, murine; details: for Dose.FC.LYZ.S: FC vs plate median
Source text: (§1) High-throughput screening.

[2] = tested on: ISC-enriched organoids; assay: Primary screen, 384-well 2.5-D organoid differentiation (ENR+CD, 6 days, Target Selective Inhibitor Library, vs whole-plate median): ATP (CellTiter-Glo 3D, CTG); details: for Dose.FC.CTG: FC vs plate median
[3] = tested on: ISC-enriched organoids; assay: Primary screen, 384-well 2.5-D organoid differentiation (ENR+CD, 6 days): basal lysozyme secretion (LYZ.NS); type: cell-based, murine; details: for Dose.FC.LYZ.NS: FC vs plate median
Source text: as §1

[4] = Dose 0.08 uM, standard z score of FC
[5] = Dose 0.40 uM, standard z score of FC
[6] = Dose 2.00 uM, standard z score of FC
[7] = Dose 10.00 uM, standard z score of FC
[8] = Dose 0.08 uM, primary screen, standard z score
[9] = Dose 0.40 uM, primary screen, standard z score
[10] = Dose 2.00 uM, primary screen, standard z score
[11] = Dose 10.00 uM, primary screen, standard z score
[12] = dose 0.08 uM (1st of 4 lines per treatment; dose not printed in this part)
[13] = dose 0.40 uM (2nd of 4 lines per treatment; dose not printed in this part)
[14] = dose 2.00 uM (3rd of 4 lines per treatment; dose not printed in this part)
[15] = dose 10.00 uM (4th of 4 lines per treatment; dose not printed in this part)
[16] = primary screen, dose 0.08 uM, ENR+CD 6 days
[17] = primary screen, dose 0.40 uM, ENR+CD 6 days
[18] = primary screen, dose 2.00 uM, ENR+CD 6 days
[19] = primary screen, dose 10.00 uM, ENR+CD 6 days
[20] = primary screen, dose 0.08 uM, standard z score of FC
[21] = primary screen, dose 0.40 uM, standard z score of FC
[22] = primary screen, dose 2.00 uM, standard z score of FC
[23] = primary screen, dose 10.00 uM, standard z score of FC

With CNC(=O)c1ccc(N2C(=S)N(c3ccc(C#N)c(C(F)(F)F)c3)C(=O)C2(C)C)cc1F [Enzalutamide (MDV3100)] the Dose.FC.LYZ.S ([1]; Dose 0.08 uM, ENR+CD, 6 days) was 0.176 log 2 fold change, the Dose.FC.LYZ.S ([1]; Dose 0.40 uM, ENR+CD, 6 days) was 0.276 log 2 fold change and the Dose.FC.LYZ.S ([1]; Dose 2.00 uM, ENR+CD, 6 days) was 0.077 log 2 fold change. The Dose.FC.LYZ.S ([1]; Dose 10.00 uM, ENR+CD, 6 days) was 0.076 log 2 fold change, the Dose.FC.CTG ([2]; Dose 0.08 uM, ENR+CD, 6 days) was 0.195 log 2 fold change and the Z.CTG [2, 4] was 0.465. The Dose.FC.CTG ([2]; Dose 0.40 uM, ENR+CD, 6 days) was 0.256 log 2 fold change, the Z.CTG [2, 5] was 0.611 and the Dose.FC.CTG ([2]; Dose 2.00 uM, ENR+CD, 6 days) was 0.076 log 2 fold change. For the same molecule, the Z.CTG [2, 6] was 0.181, the Dose.FC.CTG ([2]; Dose 10.00 uM, ENR+CD, 6 days) was 0.146 log 2 fold change and the Z.CTG [2, 7] was 0.348. For the same molecule, the Dose.FC.LYZ.NS ([3]; Dose 0.08 uM, ENR+CD, 6 days) was 0.162 log 2 fold change, the Z.LYZ.NS [3, 4] was 1.411 and the Dose.FC.LYZ.NS ([3]; Dose 0.40 uM, ENR+CD, 6 days) was 0.166 log 2 fold change. It also gave a Z.LYZ.NS [3, 5] of 1.446, a Dose.FC.LYZ.NS ([3]; Dose 2.00 uM, ENR+CD, 6 days) of 0.024 log 2 fold change and a Z.LYZ.NS [3, 6] of 0.210. The Dose.FC.LYZ.NS ([3]; Dose 10.00 uM, ENR+CD, 6 days) was 0.094 log 2 fold change and the Z.LYZ.NS [3, 7] was 0.820.

For CC1=C(C(=O)Nc2cc3cn[nH]c3cc2F)C(c2ccc(C(F)(F)F)cc2)CC(=O)N1 (stereo not shown) [GSK429286A], the Dose.FC.LYZ.S ([1]; Dose 0.08 uM, primary screen) was 0.247 log 2 fold change, the Dose.FC.LYZ.S ([1]; Dose 0.40 uM, primary screen) was 0.283 log 2 fold change and the Dose.FC.LYZ.S ([1]; Dose 2.00 uM, primary screen) was 0.245 log 2 fold change. It also gave a Dose.FC.LYZ.S ([1]; Dose 10.00 uM, primary screen) of 0.099 log 2 fold change, a Dose.FC.CTG ([2]; Dose 0.08 uM, primary screen) of 0.527 log 2 fold change and a Z.CTG [2, 8] of 1.260. For the same molecule, the Dose.FC.CTG ([2]; Dose 0.40 uM, primary screen) was 0.545 log 2 fold change, the Z.CTG [2, 9] was 1.302 and the Dose.FC.CTG ([2]; Dose 2.00 uM, primary screen) was 0.488 log 2 fold change. The Z.CTG [2, 10] was 1.166, the Dose.FC.CTG ([2]; Dose 10.00 uM, primary screen) was 0.370 log 2 fold change and the Z.CTG [2, 11] was 0.883. For the same molecule, the Dose.FC.LYZ.NS ([3]; Dose 0.08 uM, primary screen) was 0.137 log 2 fold change, the Z.LYZ.NS [3, 8] was 1.197 and the Dose.FC.LYZ.NS ([3]; Dose 0.40 uM, primary screen) was 0.128 log 2 fold change. It also gave a Z.LYZ.NS [3, 9] of 1.117, a Dose.FC.LYZ.NS ([3]; Dose 2.00 uM, primary screen) of 0.140 log 2 fold change and a Z.LYZ.NS [3, 10] of 1.222. For the same molecule, the Dose.FC.LYZ.NS ([3]; Dose 10.00 uM, primary screen) was 0.059 log 2 fold change and the Z.LYZ.NS [3, 11] was 0.517.

In the case of C[C@H](Oc1cc(-c2cnn(C3CCNCC3)c2)cnc1N)c1c(Cl)ccc(F)c1Cl [(S)-crizotinib], the “SSMD.LYZ.S_Rep (strictly standardized mean difference)” value [1, 12] is reported as 0.881, the “Z.LYZ.S (standard z score)” value [1, 12] is reported as 0.808 and the “SSMD.LYZ.S_Rep (strictly standardized mean difference)” value [1, 13] is reported as 0.084. For the same molecule, the “Z.LYZ.S (standard z score)” value [1, 13] was 0.103, the “SSMD.LYZ.S_Rep (strictly standardized mean difference)” value [1, 14] was −0.343 and the “Z.LYZ.S (standard z score)” value [1, 14] was −0.383. For the same molecule, the “SSMD.LYZ.S_Rep (strictly standardized mean difference)” value [1, 15] was −0.491, the “Z.LYZ.S (standard z score)” value [1, 15] was −0.720 and the Dose.FC.LYZ.S [1, 16] was 0.125 log 2 fold change. It also gave a Dose.FC.LYZ.S [1, 17] of 0.016 log 2 fold change, a Dose.FC.LYZ.S [1, 18] of −0.059 log 2 fold change and a Dose.FC.LYZ.S [1, 19] of −0.111 log 2 fold change. For the same molecule, the “SSMD.CTG_Rep (strictly standardized mean difference)” value [2, 12] was 0.742, the “SSMD.CTG_Rep (strictly standardized mean difference)” value [2, 13] was 0.190 and the “SSMD.CTG_Rep (strictly standardized mean difference)” value [2, 14] was 0.285. The “SSMD.CTG_Rep (strictly standardized mean difference)” value [2, 15] was 0.034, the Dose.FC.CTG [2, 16] was 0.241 log 2 fold change and the Z.CTG [2, 20] was 0.575. The Dose.FC.CTG [2, 17] was 0.054 log 2 fold change, the Z.CTG [2, 21] was 0.130 and the Dose.FC.CTG [2, 18] was 0.111 log 2 fold change. It also gave a Z.CTG [2, 22] of 0.266, a Dose.FC.CTG [2, 19] of 0.019 log 2 fold change and a Z.CTG [2, 23] of 0.046. The “SSMD.LYZ.NS_Rep (strictly standardized mean difference)” value [3, 12] was 0.838, the “SSMD.LYZ.NS_Rep (strictly standardized mean difference)” value [3, 13] was 0.094 and the “SSMD.LYZ.NS_Rep (strictly standardized mean difference)” value [3, 14] was −0.229. The “SSMD.LYZ.NS_Rep (strictly standardized mean difference)” value [3, 15] was −0.438, the Dose.FC.LYZ.NS [3, 16] was 0.193 log 2 fold change and the Z.LYZ.NS [3, 20] was 1.679. It also gave a Dose.FC.LYZ.NS [3, 17] of 0.009 log 2 fold change, a Z.LYZ.NS [3, 21] of 0.081 and a Dose.FC.LYZ.NS [3, 18] of −0.034 log 2 fold change. For the same molecule, the Z.LYZ.NS [3, 22] was −0.294, the Dose.FC.LYZ.NS [3, 19] was −0.068 log 2 fold change and the Z.LYZ.NS [3, 23] was −0.588.
